Experimental data published in patent publication US9034921B2, “Diphenylmethane derivatives as SGLT2 inhibitors” (GREEN CROSS CORPORATION, priority 2011, dated 2015).

biological target: human SGLT2 (Homo sapiens (Human), UniProt P31639); assay: Inhibitory effects on human SGLT2 activities (14C-AMG uptake, sodium-dependent glucose transport assay); format: cell-based; conditions: CHO cells stably expressing hSGLT2, 37° C., 2 h, single determinations
How it was run: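 CHO cells stably expressing hSGLT2 were preincubated 10 min at 37 °C in choline (Na+-free) buffer, then exposed 2 h at 37 °C to compound in Na+ uptake buffer with 8 μM 14C-AMG and 1 mM unlabeled AMG. Radioactivity was scintillation counted; IC50 came from nonlinear regression.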

Chain of human SGLT2 (P31639 whole entry): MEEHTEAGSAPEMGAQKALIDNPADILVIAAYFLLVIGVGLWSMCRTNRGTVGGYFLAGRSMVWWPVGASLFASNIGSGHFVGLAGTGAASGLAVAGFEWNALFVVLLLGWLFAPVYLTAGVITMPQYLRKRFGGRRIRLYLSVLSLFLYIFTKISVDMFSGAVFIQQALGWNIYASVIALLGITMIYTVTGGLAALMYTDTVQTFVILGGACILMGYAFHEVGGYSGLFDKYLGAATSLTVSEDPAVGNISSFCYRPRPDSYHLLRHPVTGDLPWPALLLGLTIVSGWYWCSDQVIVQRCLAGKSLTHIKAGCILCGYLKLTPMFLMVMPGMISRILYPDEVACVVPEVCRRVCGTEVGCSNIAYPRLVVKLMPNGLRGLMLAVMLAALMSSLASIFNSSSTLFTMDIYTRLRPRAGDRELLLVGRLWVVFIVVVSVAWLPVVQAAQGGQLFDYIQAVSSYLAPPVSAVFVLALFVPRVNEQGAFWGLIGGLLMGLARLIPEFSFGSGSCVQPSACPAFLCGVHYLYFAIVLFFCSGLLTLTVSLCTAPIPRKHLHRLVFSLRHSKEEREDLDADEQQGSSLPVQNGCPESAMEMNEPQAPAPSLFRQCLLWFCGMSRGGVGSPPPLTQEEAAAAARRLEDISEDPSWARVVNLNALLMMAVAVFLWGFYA

IC50 [nM] | SMILES
1.44 | CC1Cc2c([C@@H]3O[C@H](CO)[C@@H](O)[C@H](O)[C@H]3O)cc(Cc3ccc(C(C)C)cc3)c(Cl)c2O1 (stereo partly drawn) [Example E150, (2S,3R,4R,5S,6R)-2-(7-Chloro-6-(4-isopropylbenzyl)-2-methyl-2,3-dihydrobenzofuran-4-yl)-6-(hydroxymethyl)tetrahydro-2H-pyran-3,4,5-triol]
0.872 | CC(C)c1ccc(Cc2cc([C@@H]3O[C@H](CO)[C@@H](O)[C@H](O)[C@H]3O)c3c(c2Cl)OCO3)cc1 [Example E159, (2S,3R,4R,5S,6R)-2-(7-Chloro-6-(4-isopropylbenzyl)benzo[d][1,3]dioxol-4-yl)-6-(hydroxymethyl)tetrahydro-2H-pyran-3,4,5-triol]
1.8 | CC1Cc2c(Cl)c(Cc3ccc(C(C)C)cc3)cc([C@@H]3O[C@H](CO)[C@@H](O)[C@H](O)[C@H]3O)c2O1 (stereo partly drawn) [Example E149, (2S,3R,4R,5S,6R)-2-(4-Chloro-5-(4-isopropylbenzyl)-2-methyl-2,3-dihydrobenzofuran-7-yl)-6-(hydroxymethyl)tetrahydro-2H-pyran-3,4,5-triol]
0.865 | OC[C@H]1O[C@@H](c2ccc(Cl)c(Cc3ccc4sccc4c3)c2)[C@H](O)[C@@H](O)[C@@H]1O [Example E031, (2S,3R,4R,5S,6R)-2-(3-(Benzo[b]thiophen-5-ylmethyl)-4-chlorophenyl)-6-(hydroxymethyl)tetrahydro-2H-pyran-3,4,5-triol]
5.78 | CC1(C)COc2cc(Cc3cc([C@@H]4O[C@H](CO)[C@@H](O)[C@H](O)[C@H]4O)ccc3Cl)ccc2O1 [Example E064, (2S,3R,4R,5S,6R)-2-(4-Chloro-3-((2,2-dimethyl-2,3-dihydrobenzo[b][1,4]dioxin-6-yl)methyl)phenyl)-6-(hydroxymethyl)-tetrahydro-2H-pyran-3,4,5-triol]
10.5 | CCOc1ccc(Cc2cc([C@@H]3O[C@H](CO)[C@@H](O)[C@H](O)[C@H]3O)c3c(c2Cl)OCC3=O)cc1 [Example E226]

More lines, now with the values behind:

SMILES | IC50 [nM]
CCCc1ccc(Cc2cc([C@@H]3O[C@H](CO)[C@@H](O)[C@H](O)[C@H]3O)c3c(c2Cl)CC(C)O3)cc1 (stereo partly drawn) [Example E134, (2S,3R,4R,5S,6R)-2-(4-Chloro-2-methyl-5-(4-propylbenzyl)-2,3-dihydrobenzofuran-7-yl)-6-(hydroxymethyl)tetrahydro-2H-pyran-3,4,5-triol] | 0.885
CCOc1ccc(Cc2cc([C@@H]3O[C@H](CO)[C@@H](O)[C@H](O)[C@H]3O)c3c(c2Cl)CCC3)cc1 [Example E008, (2S,3R,4R,5S,6R)-2-(7-Chloro-6-(4-ethoxybenzyl)-2,3-dihydro-1H-inden-4-yl)-6-(hydroxymethyl)tetrahydro-2H-pyran-3,4,5-triol] | 0.551
C#Cc1ccc(Cc2cc([C@@H]3O[C@H](CO)[C@@H](O)[C@H](O)[C@H]3O)c3c(c2Cl)OCC3)cc1 [Example E182, (2S,3R,4R,5S,6R)-2-(7-Chloro-6-(4-ethynylbenzyl)-2,3-dihydrobenzofuran-4-yl)-6-(hydroxymethyl)tetrahydro-2H-pyran-3,4,5-triol] | 1.03
OCCCOc1ccc(Cc2cc([C@@H]3O[C@H](CO)[C@@H](O)[C@H](O)[C@H]3O)c3c(c2Cl)OCC3)cc1 [Example E193, (2S,3R,4R,5S,6R)-2-(7-Chloro-6-(4-(3-hydroxypropoxy)benzyl)-2,3-dihydrobenzofuran-4-yl)-6-(hydroxymethyl)tetrahydro-2H-pyran-3,4,5-triol] | 1.87
CCc1ccc(Cc2cc([C@@H]3O[C@H](CO)[C@@H](O)[C@H](O)[C@H]3O)c3c(c2Br)CCC3)cc1 [Example E004, (2S,3R,4R,5S,6R)-2-(7-Bromo-6-(4-ethylbenzyl)-2,3-dihydro-1H-inden-4-yl)-6-(hydroxymethyl)tetrahydro-2H-pyran-3,4,5-triol] | 0.661
CCOc1ccc(Cc2cc([C@@H]3O[C@H](C)[C@@H](O)[C@H](O)[C@H]3O)c3c(c2Cl)OCC3)cc1 [Example E125, (2S,3R,4S,5S,6R)-2-(7-Chloro-6-(4-ethoxybenzyl)-2,3-dihydrobenzofuran-4-yl)-6-methyltetrahydro-2H-pyran-3,4,5-triol] | 0.728
CC1Cc2cc(Cc3cc([C@@H]4O[C@H](CO)[C@@H](O)[C@H](O)[C@H]4O)ccc3Cl)ccc2O1 (stereo partly drawn) [Example E065, (2S,3R,4R,5S,6R)-2-(4-Chloro-3-((2-methyl-2,3-dihydrobenzofuran-5-yl)methyl)phenyl)-6-(hydroxymethyl)-tetrahydro-2H-pyran-3,4,5-triol] | 7.62
OC[C@H]1O[C@@H](c2cc(Cc3ccc(C4CC4)cc3)c(Cl)c3c2CCCO3)[C@H](O)[C@@H](O)[C@@H]1O [Example E155, (2S,3R,4R,5S,6R)-2-(8-Chloro-7-(4-cyclopropylbenzyl)chroman-5-yl)-6-(hydroxymethyl)tetrahydro-2H-pyran-3,4,5-triol] | 0.881
CCOc1ccc(Cc2cc([C@@H]3O[C@H](SC)[C@@H](O)[C@H](O)[C@H]3O)cc(OC)c2Cl)cc1 [Example E114, (2S,3R,4R,5S,6R)-2-(4-Chloro-3-(4-ethoxybenzyl)-5-methoxyphenyl)-6-(methylthio)tetrahydro-2H-pyran-3,4,5-triol] | 0.308
